Measurements from US7915238B2, “Immunomodulatory compounds and methods of use thereof” (Eisai R & D Management Co., Ltd., priority 1999, dated 2011).

What was measured:
[1] = system: normal mouse splenocytes; experiment: Cytokine release from murine splenocytes; assay type: cell-based, C57BL6 mice; settings: 24 hours culture with test compound
Description: The ability of compounds to stimulate cytokine release from splenocytes can be assessed in a mouse model. Spleen cells harvested from C57BL6 mice are cultured for 24 hours in RPMI 1640 cell culture medium containing 5% FBS, 1 mM sodium pyruvate, 2 mM L-glutamine, 100 U/ml penicillin/streptomycin and 50 μM beta-mercaptoethanol, various concentrations of test compound for 20-24 hours, after which the cell culture supernatant is tested for the presence of cytokines.
Spleen cells harvested from mice were cultured for 24 house with test compound and the supernatant was tested for release of cytokines.

[2] = system: THP-1 cells; experiment: TNF-alpha promoter secreted alkaline phosphatase (TNF-PLAP) reporter in THP-1 cells; assay type: cell-based, human
Description: Similar results can be obtained when compounds of the invention are tested in a cell-culture model. In this assay, compounds of the invention are tested for their ability to stimulate secretion of alkaline phosphatase from THP-1 cells that have been transfected with the gene for secreted alkaline phosphatase under the control of the TNF-alpha promoter, as described in detail in Goto et al., Molecular Pharmacology 49; 860-873 (1996). In this assay, however, the effects of removing serum^1—a condition that may more-likely mimic a subcutaneous environment—can be evaluated. As shown in FIG. 2 and described in Table 1, results from these assays indicate that compounds of the invention stimulate induction of genes under the control of the TNF-alpha promoter when added to cells in the absence as well as the presence of serum. ^1 This is important to determine if serum components such as lipopolysaccharide binding protein are necessary for drug activity.

[3] = system: Human Whole Blood; experiment: Cytokine release in human whole blood (ELISA); assay type: cell-based; settings: for EC50: whole blood, vs. % of LPS at 10 ng/ml, read-out: WB ED50 vs LPS@ 10 ng/ml; for TNF-alpha release in whole blood at 10 μM compound (% of 10 ng/ml LPS response): compounds tested at 10 μM, compared to 10 ng/ml LPS, 3-hour incubation
Description: The most readily available human system to test compound activity on monocytes/macrophages is in whole blood. Various concentrations of compounds of the invention were added as 10× stocks in 50 μl of Ca^++, Mg^++-free Hank's balanced salt solution (HBSS) followed by 50 μl of HBSS into 400 μl of heparinized whole blood obtained from normal volunteers (18-51 years old; 110-230 lb.) into the wells of plastic assay plates, for a total volume of 500 μl/well (final concentration of whole blood was 80%). After a 3-hour incubation with gentle shaking at 37° C. in a 5% CO2 atmosphere, the assay plates were centrifuged at 1000×g for 10 min. at 4° C. and plasma was drawn off and frozen at −80° C. Plasma samples were analyzed for TNF-alpha, IL-10, and IL-12 by ELISA (Genzyme Corp., Cambridge, Mass.). Each assay point was tested in triplicate.
This stimulatory activity can be compared to that of 10 ng/ml endotoxin (or LPS) present in similar incubations in the same assay.

Row | SMILES | THP-1 cell Stimulation (% of compound 100 at 10 μM) +serum [2] | EC50 [3] [nM] | TNF-alpha release in whole blood at 10 μM compound (% of 10 ng/ml LPS response) [3] | also measured
1 | CCCCCC/C=C\CCCC(=O)O[C@H](CCCCCCC)CCOCC(COP(=O)([O-])OCCNC(=O)CCCCCCCCC(=O)NCCOP(=O)([O-])OCC(COCC[C@@H](CCCCCCC)OC(=O)CCC/C=C\CCCCCC)NC(=O)CC(=O)CCCCCCCCCCC)NC(=O)CC(=O)CCCCCCCCCCC.[Na+].[Na+] (some centres unmarked) [ER 111231] | – | – | – | IL-10 release from splenocytes [1]: stimulated; interferon-gamma release from splenocytes [1]: stimulated
2 | CCCCCC/C=C\CCCC(=O)O[C@H](CCCCCCC)CCOCC(COP(=O)([O-])OCCNC(=O)CC(=O)NCCOP(=O)([O-])OCC(COCC[C@@H](CCCCCCC)OC(=O)CCC/C=C\CCCCCC)NC(=O)CC(=O)CCCCCCCCCCC)NC(=O)CC(=O)CCCCCCCCCCC.[Na+].[Na+] (some centres unmarked) [ER 113651] | – | – | – | IL-10 release from splenocytes [1]: stimulated; interferon-gamma release from splenocytes [1]: stimulated
3 | CCCCCC/C=C\CCCC(=O)O[C@H](CCCCCCC)CCOCC(COP(=O)([O-])OCCNC(=O)CCCCCCCCC(=O)NCCOP(=O)([O-])OCC(COCC[C@@H](CCCCCCC)OC(=O)CCC/C=C\CCCCCC)NC(=O)CC(=O)CCCCCCCCCCC)NC(=O)CC(=O)CCCCCCCCCCC.[Na+].[Na+] (some centres unmarked) [compound 111231] | 17 % of compound 100 at 10 μM | 290 | – | –
4 | CCCCCC/C=C\CCCC(=O)O[C@H](CCCCCCC)CCOCC(COP(=O)([O-])OCCNC(=O)NCCOP(=O)([O-])OCC(COCC[C@@H](CCCCCCC)OC(=O)CCC/C=C\CCCCCC)NC(=O)CC(=O)CCCCCCCCCCC)NC(=O)CC(=O)CCCCCCCCCCC.[Na+].[Na+] (some centres unmarked) [compound 111232] | 155 % of compound 100 at 10 μM | – | 158 % of LPS | THP-1 cell Stimulation (% of compound 100 at 10 μM) −serum [2]: 225 % of compound 100 at 10 μM
5 | CCCCCC/C=C\CCCC(=O)O[C@H](CCCCCCC)CCOCC(COP(=O)([O-])OCCNC(=O)CCC(=O)NCCOP(=O)([O-])OCC(COCC[C@@H](CCCCCCC)OC(=O)CCC/C=C\CCCCCC)NC(=O)CC(=O)CCCCCCCCCCC)NC(=O)CC(=O)CCCCCCCCCCC.[Na+].[Na+] (some centres unmarked) [compound 111233] | 141 % of compound 100 at 10 μM | – | – | –
6 | CCCCCCCCCCCC(=O)CC(=O)NC(COCC[C@@H](CCCCCCC)OC(=O)CCCCCCCCCCC)COP(=O)([O-])OCCNC(=O)NCCOP(=O)([O-])OCC(COCC[C@@H](CCCCCCC)OC(=O)CCCCCCCCCCC)NC(=O)CC(=O)CCCCCCCCCCC.[Na+].[Na+] (some centres unmarked) [compound 112066] | 330 % of compound 100 at 10 μM | 40 | 162 % of LPS | –
7 | CCCCCC/C=C\CCCC(=O)O[C@H](CCCCCCC)CCOCC(COP(=O)([O-])OCCNC(=O)CC(=O)NCCOP(=O)([O-])OCC(COCC[C@@H](CCCCCCC)OC(=O)CCC/C=C\CCCCCC)NC(=O)CC(=O)CCCCCCCCCCC)NC(=O)CC(=O)CCCCCCCCCCC.[Na+].[Na+] (some centres unmarked) [compound 113651] | 215 % of compound 100 at 10 μM | 700 | 133 ± 4.4 (n = 4) % of LPS | THP-1 cell Stimulation (% of compound 100 at 10 μM) −serum [2]: 254 % of compound 100 at 10 μM
8 | CCCCCCCCCCCCCC(=O)O[C@@H](COCC[C@@H](CCCCCCC)OC(=O)CCCCCCCCCCC)COP(=O)([O-])OCCNC(=O)CC(=O)NCCOP(=O)([O-])OC[C@H](COCC[C@@H](CCCCCCC)OC(=O)CCCCCCCCCCC)OC(=O)CCCCCCCCCCCCC.[Na+].[Na+] [compound 803059] | – | 890 | 2 % of LPS | –
9 | CCCCCCCCCCCCCC(=O)O[C@@H](COCC[C@@H](CCCCCCC)OC(=O)CCCCCCCCCCC)COP(=O)([O-])OCCNC(=O)NCCOP(=O)([O-])OC[C@H](COCC[C@@H](CCCCCCC)OC(=O)CCCCCCCCCCC)OC(=O)CCCCCCCCCCCCC.[Na+].[Na+] [compound 803592] | – | – | 15 % of LPS | –
10 | CCCCCCCCCCCCCC(=O)N[C@H](COCC[C@@H](CCCCCCC)OC(=O)CCCCCCCCCCC)COP(=O)(O)OCCNC(=O)CC(=O)NCCOP(=O)(O)OC[C@H](COCC[C@@H](CCCCCCC)OC(=O)CCCCCCCCCCC)NC(=O)CCCCCCCCCCCCC [compound 803731] | – | > 10000 | – | –
11 | CCCCCCCCCCCCCC(=O)N[C@H](COCC[C@@H](CCCCCCC)OC(=O)CCCCCCCCCCC)COP(=O)(O)OCCNC(=O)CC(=O)NCCOP(=O)(O)OC[C@H](COCC[C@@H](CCCCCCC)OC(=O)CCCCCCCCCCC)NC(=O)CCCCCCCCCCCCC [compound 803733] | – | 700 | – | –
12 | CCCCCCCCCCCCCC(=O)N[C@H](COCC[C@@H](CCCCCCC)OC(=O)CCCCCCCCCCC)COP(=O)(O)OCCNC(=O)NCCOP(=O)(O)OC[C@H](COCC[C@@H](CCCCCCC)OC(=O)CCCCCCCCCCC)NC(=O)CCCCCCCCCCCCC [compound 803789] | – | 100 | – | –
